Data: patent US10391143B2, “Mitochondrial-derived peptide MOTS3 regulates metabolism and cell survival” (THE REGENTS OF THE UNIVERSITY OF CALIFORNIA, priority 2013, dated 2019)
Ends that are not written are not given here.

What was measured:
Type in all cases: in vivo
prostate cancer (22Rv1) = assay: Prostate cancer subcutaneous allograft mouse model; settings: 22Rv1 allograft mice
breast cancer (4T1) = assay: Breast cancer subcutaneous allograft mouse model; settings: 4T1 allograft mice
ZDF diabetic rats = assay: Blood sugar in ZDF diabetic rats after 6 days of treatment; settings: IV daily for 6 days; MOTS-c 1 mg per 400 gram rat
Experimental: FIG. 33 describes Day 6 fasting blood sugars. ZDF diabetic rats were followed until their blood sugar was […], at which point treatment was initiated with one of two doses of MOTS-c or insulin, given IV at 8 AM for 6 days. 6 rats per group were used. Fasting blood sugars were measured after 6-days. ANOVA and student t-tests were used for analysis and p-values.
FIG. 34 describes absolute change in blood glucose at Day 6. In the same experiment described in FIG. 33, absolute changes in blood glucose are shown.

Substance	toxicity as reflected by body weight maintenance (prostate cancer (22Rv1))	toxicity as reflected by body weight maintenance (breast cancer (4T1))	absolute change in blood glucose at Day 6 (ZDF diabetic rats)
MRWQEMGYIFYPRKLR [MOTS3, MRWQEMGYIFYPRKLR]	not toxic	not toxic	–
insulin: insulin given IV daily for 6 days as comparator in ZDF diabetic rats	–	–	stabilize their blood sugar at levels similar to baseline
